Reference: patent publication US12616704B2, “Cannabichromene formulation for pain management” (Zyus Life Sciences Inc., priority 2020, dated 2026)

Test system: Oxaliplatin-induced cool allodynia
Assay: Acetone Cooling Test (ACT) in oxaliplatin-induced polyneuropathy (OIPN) model
Format: in vivo, C57BL/6J mice
Details: CBC 20 mg/kg p.o.
Procedure: Model Induction—Mouse Oxaliplatin-induced polyneuropathy (OIPN) model was induced over a three-week period. The day of first Oxaliplatin (OXP) injection is referred to as day 0 (DO). OXP was administered as six separate intraperitoneal injections at 4.5-mg/kg (10 ml/kg, i.p.) to Groups 2, 3, and 4 on DO, D4, D8, D12, D16, and D20. The cumulative OXP dose was thus 27 mg/kg. The in-life procedures, such as observations, tests, and/or measurements were performed by Charles River Discovery Services with blinded methods. The mice were distributed into 4 groups (n=8 for Vehicle Control; n=10 OXP Control; n=20 CBC; n=15 Duloxetine).
Treatments—Following exposure to OXP for 20 days, Groups 3 and 4 were treated with CBC (20 mg/kg, p.o.) and Duloxetine (25 mg/kg, i.p.), respectively, for 10 consecutive days. In a similar regimen Groups 1 and 2 (Vehicle Control and OXP-Vehicle Control, respectively) received a corresponding volume of 5% glucose solution at an administration volume of 10 mL/kg.
Acetone Cooling Test (ACT) —To produce a measurable cooling sensation, 10-15 μL of acetone was applied onto the medial area of the plantar hind paw with a 0.5 ml insulin syringe. Responses of a mouse to acetone were monitored for 20 s, and a score given based on a four-point scale (0-3 points), according to the response intensity, continuation, and briskness. The higher the score, the greater the cool allodynia sensed by the mouse.
Within one test timepoint, a total of 3 trials were performed per paw with a minimum gap of 5 min between testing. The three individual scores were added up to obtain a single score over a cumulative period of 60 s. Thus, for one test, the minimum score of one paw is 0 (no cool allodynia), while the maximum possible score is 9 (intensive cool allodynia). The total scores for the left and right paws were averaged to accomplish a single result value per mouse at each timepoint.
The Acetone Cooling Test was performed prior to OXP administration (Baseline), following the last OXP injection (D21), one day after the first CBC, Duloxetine, or Vehicle treatment (D22), and after a 10-day daily dosing of CBC, Duloxetine, or Vehicle treatment (D31). Taken together, the ACT was used to assess chemotherapy-induce cool allodynia as stated in the schedule:
On D22: At 60 min after the first Vehicle/CBC dose and 120 min after Dulx dose.
On D31: At 60 min after the last Vehicle/CBC and 120 min after Dulx dose.

CCCCCc1cc(O)c2c(c1)OC(C)(CCC=C(C)C)C=C2 (centres unmarked) [CBC, cannabichromene]
ACT score compared with OXP-Vehicle control (D22, acute single dose, Duloxetine 25 mg/kg i.p.): statistically significant and comparable reduction in cool allodynia | ACT score compared with OXP-Vehicle control (D31, chronic repeated dosing, Duloxetine 25 mg/kg i.p.): qualitative but not statistically significant reduction | ACT score compared with OXP-Vehicle control: p (D31, chronic repeated dosing, Mann-Whitney test): 0.06 | ACT score, D31 vs. D21 (within group, 10-day repeated dosing, Duloxetine 25 mg/kg i.p.): significant reversion of cool allodynia | ACT score, reversion of cool allodynia D22 vs. D21 pre-treatment: p (within group, single dose, Duloxetine 25 mg/kg i.p.): < 0.001
